Assay results from paper PMC7367283, “A PIP2 substitute mediates voltage sensor-pore coupling in KCNQ activation” (Communications Biology, 2020).
“And” between values parts separate entries of the source, which are not always exact repeats. Equal entries are not always repeated.

Key:
[1] = target: KCNQ1 R249A/S253A/K354A/K358A (Homo sapiens, UniProt P51787, K354A/K358A/R249A/S253A); assay: Two-electrode voltage clamp of mutant KCNQ1 in Xenopus oocytes; format: cell-based
From the text: (§1) In a previous study, mutation of residues in the predicted PIP2-binding site reduced KCNQ1 currents. CP1 modifies voltage-dependent activation of KCNQ1 channels by shifting the voltage dependence of channel opening, measured as the voltage dependence of the conductance (G–V) relationship, to more negative voltages (Fig. 1c) among other characteristics (see below). We made mutations to the residues around the CP1-interacting pocket as indicated by molecular docking (Fig. 1b), and examined the effects of the mutations on the CP1-induced shift of the G–V relationship. The mutations of the KCNQ1 residues that interact with CP1 in docking simulations reduced the shift of the G–V relationship (Fig. 1c, d), supporting the interaction of these residues with CP1.
(§2) Complementary DNA (cDNA) encoding human KCNQ1 (UniProtKB/Swiss‐Prot under accession no. P51787), KCNQ2 (O43526), KCNQ3 (O43525), KCNE1 (P15382), Kir1.1 (P48048), hERG (Q12809), KV4.2 (Q63881), NaV1.5 (Q14524), NaV β1 (Q07699), CaV1.2 (Q13936), CaV β1a (Q02641), CaV α2/δ1 (P54289), and HCN4 (Q9Y3Q4) were subcloned into oocyte expression vectors, respectively. Site-directed mutations of the KCNQ1 channel were all produced by overlap extension polymerase chain reaction (PCR) with high-fidelity Pfu polymerase (Stratagene, CA). The presence of the desired mutation was verified by sequencing the PCR-amplified regions. All the primer sequences used in this study are available in Supplementary Table 1. The complementary RNA (cRNA) of all these channels and mutations was transcribed in vitro with the T3, T7, or SP6 polymerase mMessage mMachine kit (Invitrogen, Thermo Fisher Scientific, MO).
(§3) The use of Xenopus laevis to obtain oocytes was approved by the Washington University Animal Studies Committee (protocol #20190030). Oocytes were manually dispersed and digested with collagenase (0.5 mg/ml, Sigma-Aldrich, Saint Louis, MO) to remove the follicle cell layer. Stage V or VI oocytes were selected and injected with cRNAs (9.2 ng) of channel or mutations. Especially, to characterize IKs, a mix of cRNAs at a molar ratio 4:1 (KCNQ1:KCNE1) was injected. For KCNQ2/KCNQ3, the molar ratio was 1:1 (KCNQ2:KCNQ3). For sodium channels, a 3:1 molar ratio (β1:NaV1.5) and for calcium channels a weight ratio 1:1:1 (β1:α2/δ1:CaV1.2) was injected, respectively. Injected oocytes were incubated in ND96 solution containing (in mM) 96 NaCl, 2 KCl, 1.8 CaCl2, 1 MgCl2, and 5 HEPES, pH 7.6, supplemented with 2.5 mM Na pyruvate and 1% penicillin–streptomycin, at 18 °C for 3–7 days before recording.
(§4) The whole-oocyte ionic currents were recorded with a GeneClamp 500B amplifier (Axon Instruments, CA) or iTEV90 amplifier (HEKA, Germany) and then sampled at 1 kHz and low-pass-filtered at 2 kHz. The Patchmaster software (HEKA, Germany) was used to acquire data. The Kir1.1 current was recorded with a high K^+ bath solution containing (in mM) 96 KCl, 4 NaCl, 1 CaCl2, 2 MgCl2, and 10 HEPES, pH 7.3–7.4. The HCN4 current was recorded in ND66 solution containing (in mM) 66 NaCl, 32 KCl, 1.8 CaCl2, 1 MgCl2, and 5 HEPES, pH 7.6. All the other potassium channels were recorded in ND96 solution. The currents of CaV1.2 channel were recorded in 40 mM Ba^2+ bath solution containing (in mM) 40 Ba(OH)2, 50 TEA-OH, 2 KOH, and 5 HEPES, adjusted to pH 7.4 with methanesulfonic acid. CP1 (DISODIUM 5-BROMO-2-[9-CHLORO-3-(SULFONATOOXY) NAPHTHO [1,2-B] THIEN-2-YL]-1H-INDOL-3-YL SULFATE, Sigma-Aldrich, MO) and Chromanol 293B (Sigma-Aldrich, MO) were dissolved in bath solutions. All the chemicals were purchased from Sigma-Aldrich. To measure the I–V relations of the Kir1.1 channel, the test voltage was set from −100 to +60 mV for 1 s with 20-mV increments. The test pulses were stepped from a holding potential of 0 mV and then stepped back to 0 mV. The HCN4 currents were recorded by a test pulse between −30 and −140 mV in 10-mV step from a holding potential of −30 mV. […]

[2] = target: KCNQ1 R249A (Homo sapiens, UniProt P51787, R249A); assay: as above; format: cell-based
From the text: as §1, §2, §3, §4

Structure (SMILES): O=S(=O)([O-])Oc1c(-c2sc3c(ccc4cccc(Cl)c43)c2OS(=O)(=O)[O-])[nH]c2ccc(Br)cc12.[Na+].[Na+] [CP1, DISODIUM 5-BROMO-2-[9-CHLORO-3-(SULFONATOOXY) NAPHTHO [1,2-B] THIEN-2-YL]-1H-INDOL-3-YL SULFATE]
- G/Gmax ([1]; 10 µM CP1, 0 mV): 0.6125
- G/Gmax ([1]; 10 µM CP1, 10 mV): 0.7412
- G/Gmax ([1]; 10 µM CP1, 20 mV): 0.8671
- G/Gmax ([1]; 10 µM CP1, 30 mV): 0.9470
- G/Gmax ([1]; 10 µM CP1, 40 mV): 1.0000
- G/Gmax ([1]; 10 µM CP1, -10 mV): 0.4658
- G/Gmax ([1]; 10 µM CP1, -20 mV): 0.3584
- G/Gmax ([1]; 10 µM CP1, -30 mV): 0.2410
- G/Gmax ([1]; 10 µM CP1, -40 mV): 0.1854
- G/Gmax ([1]; 10 µM CP1, -50 mV): 0.1254
- G/Gmax ([1]; 10 µM CP1, -60 mV): 0.1039
- G/Gmax ([1]; 10 µM CP1, -70 mV): 0.0777
- G/Gmax ([1]; 10 µM CP1, -80 mV): 0.0665
- G/Gmax ([1]; 10 µM CP1, -90 mV): 0.0440
- G/Gmax ([1]; 10 µM CP1, -100 mV): 0.0354
- G/Gmax ([1]; 10 µM CP1, -110 mV): 0.0175
- G/Gmax ([1]; 10 µM CP1, -120 mV): 0.0015
- ∆V1/2 ([1]; 10 µM CP1, individual oocytes): 21.6716 mV and 20.4143 mV and 21.6154 mV and 29.7699 mV
- G/Gmax ([2]; 10 µM CP1, 0 mV): 0.9092
- G/Gmax ([2]; 10 µM CP1, 10 mV): 0.9509
- G/Gmax ([2]; 10 µM CP1, 20 mV): 0.9864
- G/Gmax ([2]; 10 µM CP1, 30 mV): 1.0000
- G/Gmax ([2]; 10 µM CP1, -10 mV): 0.8439
- G/Gmax ([2]; 10 µM CP1, -20 mV): 0.7664
- G/Gmax ([2]; 10 µM CP1, -30 mV): 0.6715
- G/Gmax ([2]; 10 µM CP1, -40 mV): 0.5716
- G/Gmax ([2]; 10 µM CP1, -50 mV): 0.4548
- G/Gmax ([2]; 10 µM CP1, -60 mV): 0.3517
- G/Gmax ([2]; 10 µM CP1, -70 mV): 0.2667
- G/Gmax ([2]; 10 µM CP1, -80 mV): 0.1987
- G/Gmax ([2]; 10 µM CP1, -90 mV): 0.1385
- G/Gmax ([2]; 10 µM CP1, -100 mV): 0.0990
- G/Gmax ([2]; 10 µM CP1, -110 mV): 0.0539
- G/Gmax ([2]; 10 µM CP1, -120 mV): 0.0000
- ∆V1/2 ([2]; 10 µM CP1, individual oocytes): 32.4733 mV and 36.93 mV and 39.3292 mV and 47.5115 mV and 29.4037 mV
